{"source": "patent US4016167A", "about": "“N-Substituted-6,8-dioxamorphinans” (Bristol-Myers Company, priority 1975, dated 1977)", "key": {"[1]": {"test_system": "phenylquinone induced writhings", "test": "Phenylquinone writhing, mouse s.c. (agonist activity)", "type": "in vivo", "conditions": "50 percent reduction in number of phenylquinone induced writhings, tested as salts, reported as free base; for ED50 Agonist Activity, Phenylquinone Writhing: tartrate; for ED50: Mus musculus, sc", "from_the_text": "^1 A 50 percent reduction in number of phenylquinone induced writhings (Siegmund, E.A. et al., Proc. Soc. Biol. & Med. 95, 729; 1957)."}, "[2]": {"test_system": "Straub Tail induced by oxymorphone", "test": "Antagonism of Straub Tail induced by oxymorphone in mice (antagonist activity)", "type": "in vivo, mouse", "conditions": "antagonism of Straub Tail induced by oxymorphone (2 mg./kg. s.c.) in 50 percent of mice, reported as free base; for ED50 Antagonist Activity, Oxymorphone Straub Tail: s.c., tartrate; for ED50: Mus musculus, sc", "protocol": "^2 Antagonism of Straub Tail induced by oxymorphone (2 mg./kg. s.c.) in 50 percent of mice."}, "[3]": {"test_system": "agonist or antagonist activity in mice and rats", "test": "Agonist and/or antagonist activity in mice and rats, overall assessment of the testing results", "type": "in vivo", "conditions": "conclusion from Table I"}, "[4]": {"test_system": "analgesic effect induced by morphine", "test": "Morphine antagonism, rat tail flick (antagonist activity)", "conditions": "sc, read-out: ED50 Antagonist Activity, Morphine Antagonism Rat Tail Flick"}, "[5]": {"conditions": "prior art; cited from earlier work"}}, "note": "Counter-ions that a name gives are not always drawn."}
{"smiles": "COc1ccc2c(c1)[C@]13CCN(CC4CC4)[C@H](C2)[C@@H]1OC(C)(C)OC3.O=C(O)C(O)C(O)C(=O)O", "note": "(single isomer, unassigned) [(+)-XIVd, (+)-17-Cyclopropylmethyl-7,7-dimethyl-3-methoxy-6,8-dioxamorphinan-(-)-hydrogen tartrate]", "values": [{"measurement": "ED50 Agonist Activity, Phenylquinone Writhing", "setting": "[1]", "result": "> 40", "unit": "mg/kg"}, {"measurement": "ED50 Antagonist Activity, Oxymorphone Straub Tail", "setting": "[2]", "result": "> 40", "unit": "mg/kg"}]}
{"smiles": "CC1(C)OCC23CCN(CC4CC4)C(Cc4ccc(O)cc42)C3O1", "note": "(single isomer, unassigned) [(+)-XVd, (+)-17,Cyclopropylmethyl-7,7-dimethyl-3-hydroxy-6,8-dioxamorphinan (-) tartrate]", "values": [{"measurement": "ED50", "setting": "[1]", "result": "> 10", "unit": "mg/kg"}, {"measurement": "ED50", "setting": "[2]", "result": "> 40", "unit": "mg/kg"}]}
{"smiles": "COc1ccc2c(c1)[C@]13CCN(CC4CC4)[C@H](C2)[C@@H]1OC(C)(C)OC3.O=C(O)C(O)C(O)C(=O)O", "note": "(single isomer, unassigned) [(-)-XIVd, (- )-17-Cyclopropylmethyl-7,7-dimethyl-3-methoxy-6,8-dioxamorphinan-(+ )-hydrogen tartrate]", "values": [{"measurement": "ED50 Agonist Activity, Phenylquinone Writhing", "setting": "[1]", "result": 0.066, "unit": "mg/kg"}, {"measurement": "ED50 Antagonist Activity, Oxymorphone Straub Tail", "setting": "[2]", "result": 5, "unit": "mg/kg"}, {"measurement": "agonist or antagonist activity (in words)", "setting": "[3]", "result": "Outstanding"}, {"measurement": "ED50", "setting": "[4]", "result": 1.19, "unit": "mg/kg"}]}
{"smiles": "CC1(C)OC[C@]23CCN(CC4CC4)[C@H](Cc4ccc(O)cc42)[C@@H]3O1.O=C(O)C(O)C(O)C(=O)O", "note": "(single isomer, unassigned) [(-)-XVd, (- )-17-Cyclopropylmethyl-7,7-dimethyl-3-hydroxy-6,8-dioxamorphinan (+ ) tartrate]", "values": [{"measurement": "ED50", "setting": "[1]", "result": 0.005, "unit": "mg/kg"}, {"measurement": "ED50", "setting": "[2]", "result": 0.09, "unit": "mg/kg"}, {"measurement": "agonist or antagonist activity (in words)", "setting": "[3]", "result": "Outstanding"}, {"measurement": "ED50", "setting": "[4]", "result": 0.032, "unit": "mg/kg"}]}
{"smiles": "COc1ccc2c(c1)[C@]13CCN(C)[C@H](C2)[C@@H]1OCOC3", "note": "[IXa, 3-Methoxy-17-methyl-6,8-dioxamorphinan]", "values": [{"measurement": "ED50", "setting": "[1]", "result": "~5", "unit": "mg/kg"}, {"measurement": "ED50", "setting": "[2]", "result": "> 20", "unit": "mg/kg"}]}
{"smiles": "COc1ccc2c(c1)[C@]13CCN(C)[C@H](C2)[C@]1(C)OCOC3", "note": "[IXc, 14β,17-Dimethyl-3-methoxy-6,8-dioxamorphinan]", "values": [{"measurement": "ED50", "setting": "[1]", "result": 0.31, "unit": "mg/kg"}, {"measurement": "ED50", "setting": "[2]", "result": "> 40", "unit": "mg/kg"}]}
{"smiles": "COc1ccc2c(c1)[C@]13CCN(C)[C@H](C2)[C@@H]1OC(C)(C)OC3", "note": "[IXd, 3-Methoxy-7,7,17-trimethyl-6,8-dioxamorphinan]", "values": [{"measurement": "ED50", "setting": "[1]", "result": 0.63, "unit": "mg/kg"}, {"measurement": "ED50", "setting": "[2]", "result": "> 40", "unit": "mg/kg"}]}
{"smiles": "COc1ccc2c(c1)[C@]13CCN[C@H](C2)[C@@H]1OCOC3.O=C(O)/C=C/C(=O)O", "note": "[XIIa, 3-Methoxy-6,8-dioxamorphinan hydrogen fumarate]", "values": [{"measurement": "ED50", "setting": "[1]", "result": 7.4, "unit": "mg/kg"}, {"measurement": "ED50", "setting": "[2]", "result": "> 20", "unit": "mg/kg"}]}
{"smiles": "COc1ccc2c(c1)[C@]13CCN[C@H](C2)[C@]1(C)OCOC3.O=C(O)/C=C/C(=O)O", "note": "[XIIc, 3-Methoxy-14β-methyl-6,8-dioxamorphinan hydrogen fumarate]", "values": [{"measurement": "ED50", "setting": "[1]", "result": 2, "unit": "mg/kg"}, {"measurement": "ED50", "setting": "[2]", "result": "~30", "unit": "mg/kg"}]}
{"smiles": "COc1ccc2c(c1)[C@]13CCN(CC4CC4)[C@H](C2)[C@@H]1OCOC3.O=C(O)/C=C/C(=O)O", "note": "[XIVa, 17-Cyclopropylmethyl-3-methoxy-6,8-dioxamorphinan hydrogen fumarate]", "values": [{"measurement": "ED50", "setting": "[1]", "result": 0.3, "unit": "mg/kg"}, {"measurement": "ED50", "setting": "[2]", "result": "~15", "unit": "mg/kg"}, {"measurement": "agonist or antagonist activity (in words)", "setting": "[3]", "result": "Outstanding"}]}
{"smiles": "COc1ccc2c(c1)[C@]13CCN(CC4CCC4)[C@H](C2)[C@@H]1OCOC3", "note": "[XIVb, 17-Cyclobutylmethyl-3-methoxy-6,8-dioxamorphinan]", "values": [{"measurement": "ED50", "setting": "[1]", "result": 2, "unit": "mg/kg"}, {"measurement": "ED50", "setting": "[2]", "result": "> 40", "unit": "mg/kg"}]}
{"smiles": "COc1ccc2c(c1)[C@]13CCN(CC4CC4)[C@H](C2)[C@]1(C)OCOC3", "note": "[XIVc, 17-Cyclopropylmethyl-3-methoxy-14β-methyl-6,8-dioxamorphinan]", "values": [{"measurement": "ED50", "setting": "[1]", "result": "~5", "unit": "mg/kg"}, {"measurement": "ED50", "setting": "[2]", "result": "> 40", "unit": "mg/kg"}]}
{"smiles": "COc1ccc2c(c1)[C@]13CCN(CC4CC4)[C@H](C2)[C@@H]1OC(C)(C)OC3.O=C(O)/C=C/C(=O)O", "note": "[XIVd, 17-Cyclopropylmethyl-7,7-dimethyl-3-methoxy-6,8-dioxamorphinan hydrogen fumarate]", "values": [{"measurement": "ED50", "setting": "[1]", "result": 0.29, "unit": "mg/kg"}, {"measurement": "ED50", "setting": "[2]", "result": "~30", "unit": "mg/kg"}, {"measurement": "agonist or antagonist activity (in words)", "setting": "[3]", "result": "Outstanding"}]}
{"smiles": "COc1ccc2c(c1)[C@]13CCN(CC4CCC4)[C@H](C2)[C@@H]1OC(C)(C)OC3.O=C(O)/C=C/C(=O)O", "note": "[XIVe, 17-Cyclobutylmethyl-7,7-dimethyl-3-methoxy-6,8-dioxamorphinan hydrogen fumarate]", "values": [{"measurement": "ED50", "setting": "[1]", "result": 6.1, "unit": "mg/kg"}, {"measurement": "ED50", "setting": "[2]", "result": "> 40", "unit": "mg/kg"}]}
{"smiles": "Oc1ccc2c(c1)[C@]13CCN(CC4CC4)[C@H](C2)[C@@H]1OCOC3", "note": "[XVa, 17-Cyclopropylmethyl-3-hydroxy-6,8-dioxamorphinan]", "values": [{"measurement": "ED50", "setting": "[1]", "result": 0.02, "unit": "mg/kg"}, {"measurement": "ED50", "setting": "[2]", "result": 0.3, "unit": "mg/kg"}, {"measurement": "agonist or antagonist activity (in words)", "setting": "[3]", "result": "Outstanding"}, {"measurement": "ED50", "setting": "[4]", "result": 0.12, "unit": "mg/kg"}]}
{"smiles": "O=C(O)/C=C/C(=O)O.Oc1ccc2c(c1)[C@]13CCN(CC4CCC4)[C@H](C2)[C@@H]1OCOC3", "note": "[XVb, 17-Cyclobutylmethyl-3-hydroxy-6,8-dioxamorphinan fumarate]", "values": [{"measurement": "ED50", "setting": "[1]", "result": 0.14, "unit": "mg/kg"}, {"measurement": "ED50", "setting": "[2]", "result": "~15", "unit": "mg/kg"}, {"measurement": "agonist or antagonist activity (in words)", "setting": "[3]", "result": "Outstanding"}, {"measurement": "ED50", "setting": "[4]", "result": "~9", "unit": "mg/kg"}]}
{"smiles": "C[C@@]12OCOC[C@@]13CCN(CC1CC1)[C@@H]2Cc1ccc(O)cc13.O=C(O)/C=C/C(=O)O", "note": "[XVc, 17-Cyclopropylmethyl-3-hydroxy-14β-methyl-6,8-dioxamorphinan hydrogen fumarate]", "values": [{"measurement": "ED50", "setting": "[1]", "result": 0.064, "unit": "mg/kg"}, {"measurement": "ED50", "setting": "[2]", "result": 0.63, "unit": "mg/kg"}, {"measurement": "agonist or antagonist activity (in words)", "setting": "[3]", "result": "Outstanding"}, {"measurement": "ED50", "setting": "[4]", "result": 0.1, "unit": "mg/kg"}]}
{"smiles": "CC1(C)OC[C@]23CCN(CC4CC4)[C@H](Cc4ccc(O)cc42)[C@@H]3O1.O=C(O)/C=C/C(=O)O", "note": "[XVd, 17-Cyclopropylmethyl-7,7-dimethyl-3-hydroxy-6,8-dioxamorphinan hydrogen fumarate]", "values": [{"measurement": "ED50", "setting": "[1]", "result": 0.009, "unit": "mg/kg"}, {"measurement": "ED50", "setting": "[2]", "result": 0.16, "unit": "mg/kg"}, {"measurement": "agonist or antagonist activity (in words)", "setting": "[3]", "result": "Outstanding"}, {"measurement": "ED50", "setting": "[4]", "result": 0.096, "unit": "mg/kg"}]}
{"smiles": "CC1(C)OC[C@]23CCN(CC4CCC4)[C@H](Cc4ccc(O)cc42)[C@@H]3O1.O=C(O)/C=C/C(=O)O", "note": "[XVe, 17-Cyclobutylmethyl-7,7-dimethyl-3-hydroxy-6,8-dioxamorphinan hydrogen fumarate]", "values": [{"measurement": "ED50", "setting": "[1]", "result": 0.04, "unit": "mg/kg"}, {"measurement": "ED50", "setting": "[2]", "result": "~15", "unit": "mg/kg"}, {"measurement": "agonist or antagonist activity (in words)", "setting": "[3]", "result": "Outstanding"}]}
{"smiles": "CN1CC[C@]23COCO[C@H]2[C@H]1Cc1ccc(O)cc13.O=C(O)/C=C/C(=O)O", "note": "[Xa, 3-Hydroxy-17-methyl-6,8-dioxamorphinan fumarate]", "values": [{"measurement": "ED50", "setting": "[1]", "result": 0.3, "unit": "mg/kg"}, {"measurement": "ED50", "setting": "[2]", "result": "> 40", "unit": "mg/kg"}]}
{"smiles": "CN1CC[C@]23COCO[C@@]2(C)[C@H]1Cc1ccc(O)cc13.O=C(O)/C=C/C(=O)O", "note": "[Xc, 14β,17-Dimethyl-3-hydroxy-6,8-dioxamorphinan fumarate]", "values": [{"measurement": "ED50", "setting": "[1]", "result": 0.04, "unit": "mg/kg"}, {"measurement": "ED50", "setting": "[2]", "result": "~40", "unit": "mg/kg"}]}
{"smiles": "CN1CC[C@]23COC(C)(C)O[C@H]2[C@H]1Cc1ccc(O)cc13", "note": "[Xd, 3-Hydroxy-7,7,17-trimethyl-6,8-dioxamorphinan]", "values": [{"measurement": "ED50", "setting": "[1]", "result": 0.08, "unit": "mg/kg"}, {"measurement": "ED50", "setting": "[2]", "result": "> 40", "unit": "mg/kg"}]}
{"smiles": "C[C@H]1[C@H]2Cc3ccc(O)cc3[C@]1(C)CCN2CC1CC1", "note": "[cyclazocine]", "values": [{"measurement": "agonist and antagonist properties", "setting": "[5]", "result": "both properties"}]}
